Changes are numbered by the printed parent chain.
Tests used:
Details in all cases: competition with 125I-[Sar1,Ile8]Ang II, n = 3, mean ± standard error, read-out: Binding affinity (Kd)
[1] = biological target: T1, AT1 wild-type receptor (Rattus norvegicus, UniProt P25095); experiment: Competition binding study, 125I-[Sar1,Ile8]Ang II, AT1 wild-type receptor
T1 construct: expressed in transfected cells; host or cells: COS7
T1 sequence (P25095 1-359): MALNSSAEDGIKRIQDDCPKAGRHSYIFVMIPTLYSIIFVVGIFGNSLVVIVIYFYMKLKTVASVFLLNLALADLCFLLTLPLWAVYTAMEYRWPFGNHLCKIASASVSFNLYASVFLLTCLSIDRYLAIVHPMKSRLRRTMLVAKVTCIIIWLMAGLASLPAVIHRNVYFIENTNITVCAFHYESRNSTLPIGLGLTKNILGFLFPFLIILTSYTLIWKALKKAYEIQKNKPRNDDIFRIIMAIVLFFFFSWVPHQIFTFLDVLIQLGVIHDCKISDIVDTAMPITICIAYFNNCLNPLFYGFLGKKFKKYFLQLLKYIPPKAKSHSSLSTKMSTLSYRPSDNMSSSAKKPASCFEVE
Procedure: (§1) The synthetic rat AT1 receptor gene, which was cloned in the shuttle expression vector pMT-2, was used for expression and mutagenesis, as described previously. COS7 cells (No. CRL-1651, ATCC, Manassas, VA, USA) were cultured in 10% fetal bovine serum (FBS) and penicillin- and streptomycin-supplemented Dulbecco’s modified Eagle’s essential medium (PS-DMEM) in 5% CO2 at 37 °C. In the experiments, cells were grown without a cell-growth supplement. To express the AT1 receptor protein, 10 µg of purified plasmid DNA per 10^7 cells was used in the transfection. […] We then analyzed the parameters in transfected cells. […]
(§2) The Kd (nM) values of receptor binding were determined with ^125I-[Sar^1, Ile^8]AngII-binding experiments under equilibrium conditions. Binding kinetics were determined following the methods described in the literature. […] Ang II was determined in the presence of a high concentration (10^−6 M) of unlabeled [Sar^1, Ile^8]. […] The radioactivity trapped on the filters was quantified using an automatic γ-counter. The percentage (%) of specific binding of ^125I-[Sar^1, Ile^8]Ang II was calculated using the following formula: 100 × (% total binding of ^125I-[Sar^1, Ile^8]Ang II—nonspecific binding of ^125I-[Sar^1, Ile^8]Ang II)/(% total binding of ^125I-[Sar^1, Ile^8]Ang II).

[2] = biological target: T2, AT1 Q257A receptor (Rattus norvegicus, UniProt P25095, Q257A); experiment: Competition binding study, 125I-[Sar1,Ile8]Ang II, AT1 Q257A receptor
T2 construct: expressed in transfected cells; host or cells: COS7
T2 sequence (P25095 1-359 Q257A): T1 sequence (P25095 1-359) with Q257A
Excerpt: (§3) We mutated four amino acids in transmembrane (TM) III, VI, and VII in the AT1 receptor (L112A, Q257A, Y292A, and N295A receptors). We determined the mutation sites of the AT1 receptor according to ARB, which produced olmesartan derivatives with different interactions and functions toward the AT1 receptor, as previously reported by Zhang et al., since the additional 4-hydroxybenzyl groups of R781253 and R794847 were predicted to extend to a sub-pocket on the bottom of the AT1 receptor ligand-binding pocket consisting of Leu^112 and Gln^257. In addition, since the biased ligand TRV027 induced changes near the NPxxY motif in TM domain 7 that are related to receptor activation, Tyr^292 and Asn^295 in the AT1 receptor were mutated.
(§4) The synthetic rat AT1 receptor gene, which was cloned in the shuttle expression vector pMT-2, was used for expression and mutagenesis, as described previously. COS7 cells (No. CRL-1651, ATCC, Manassas, VA, USA) were cultured in 10% fetal bovine serum (FBS) and penicillin- and streptomycin-supplemented Dulbecco’s modified Eagle’s essential medium (PS-DMEM) in 5% CO2 at 37 °C. In the experiments, cells were grown without a cell-growth supplement. To express the AT1 receptor protein, 10 µg of purified plasmid DNA per 10^7 cells was used in the transfection. Wild-type and mutated AT1 receptors were transiently transfected into cells using Lipofectamine 2000 liposomal reagent (Roche Applied Science, Penzberg, Germany). Cells were plated and grown and were 70–90% confluent at the time of transfection. We incubated plasmid DNA (10 µg)–lipid (10 µL) complexes for 5 min at room temperature and added and incubated the complexes with cells for 24 h. We then analyzed the parameters in transfected cells. Cell viability was >95% according to trypan blue exclusion analysis in the control experiments. Transfected cells that had been cultured for 48–72 h were harvested. Cell membranes were prepared using the nitrogen Parr bomb disruption or freeze–thaw methods.
(§5) The Kd (nM) values of receptor binding were determined with ^125I-[Sar^1, Ile^8]AngII-binding experiments under equilibrium conditions. Binding kinetics were determined following the methods described in the literature. We carried out binding by using ^125I-[Sar^1, Ile^8] AngII (2200 Ci/mmol) and an increasing concentration (10^−11–10^−5 M) of each unlabeled compound. Nonspecific binding of ^125I-[Sar^1, Ile^8] Ang II was determined in the presence of a high concentration (10^−6 M) of unlabeled [Sar^1, Ile^8]. Next, the incubation mixture was separated by vacuum filtration through Whatman GF/C glass filters (Disposable Filter Funnels Grade GF/C, GE Healthcare), and presoaked with 0.1% polyethylenimine. The filter was washed with 3 mL of ice-cold stop buffer (25 mM Tris–HCl, pH 7.4, 1 mM MgCl2). The radioactivity trapped on the filters was quantified using an automatic γ-counter. The percentage (%) of specific binding of ^125I-[Sar^1, Ile^8]Ang II was calculated using the following formula: 100 × (% total binding of ^125I-[Sar^1, Ile^8]Ang II—nonspecific binding of ^125I-[Sar^1, Ile^8]Ang II)/(% total binding of ^125I-[Sar^1, Ile^8]Ang II).

[3] = biological target: T3, AT1 N295A receptor (Rattus norvegicus, UniProt P25095, N295A); experiment: Competition binding study, 125I-[Sar1,Ile8]Ang II, AT1 N295A receptor
T3 construct: expressed in transfected cells; host or cells: COS7
T3 sequence (P25095 1-359 N295A): T1 sequence (P25095 1-359) with N295A
Excerpt: as §3, §4, §5

[4] = biological target: T4, AT1 Y292A receptor (Rattus norvegicus, UniProt P25095, Y292A); experiment: Competition binding study, 125I-[Sar1,Ile8]Ang II, AT1 Y292A receptor
T4 construct: expressed in transfected cells; host or cells: COS7
T4 sequence (P25095 1-359 Y292A): T1 sequence (P25095 1-359) with Y292A
Excerpt: as §3, §4, §5

[5] = biological target: T5, AT1 L112A receptor (Rattus norvegicus, UniProt P25095, L112A); experiment: Competition binding study, 125I-[Sar1,Ile8]Ang II, AT1 L112A receptor
T5 construct: expressed in transfected cells; host or cells: COS7
T5 sequence (P25095 1-359 L112A): T1 sequence (P25095 1-359) with L112A
Excerpt: as §3, §1, §2

## CC[C@H](C)[C@H](NC(=O)[C@@H]1CCCN1C(=O)[C@H](Cc1c[nH]cn1)NC(=O)[C@@H](NC(=O)[C@H](Cc1ccc(O)cc1)NC(=O)[C@@H](NC(=O)[C@H](CCCN=C(N)N)NC(=O)CNC)C(C)C)[C@@H](C)CC)C(=O)O [[Sar^1,Ile^8]Ang II, [Sar^1, Ile^8]Ang II, reference compound]
[1]
  Kd: 0.8 ± 0.4 nM
[2]
  Kd: 3.3 ± 1.5 nM
[3]
  Kd: 7 ± 2 nM
[4]
  Kd: 2.1 ± 0.9 nM
[5]
  Kd: 1.3 ± 0.3 nM

From publication PMC10216478, “Development of a Non-Peptide Angiotensin II Type 1 Receptor Ligand by Structural Modification of Olmesartan as a Biased Agonist” (Biomedicines, 2023)
